DBAASP
In brackets after ≈: the same amount, converted by molar mass.

What was measured:
Assay in all cases: ≥ marks a high value that may be exact or a test limit, other limits are often not marked, values filed in µg/mL are converted to µM
Staphylococcus aureus = test system: Staphylococcus aureus
[1] = test system: Staphylococcus aureus ATCC 6538P
[2] = test system: Escherichia coli DH5alpha
Staphylococcus xylosus = test system: Staphylococcus xylosus
[3] = test system: Escherichia coli ATCC 8739
[4] = test system: Staphylococcus aureus ATCC 6538
[5] = test system: Candida albicans ATCC 90028
[6] = test system: Staphylococcus aureus ATCC 43300
[7] = test system: Salmonella enterica subsp. enterica serovar Pullorum C79-13
[8] = test system: Escherichia coli ATCC 25922
[9] = test system: Staphylococcus aureus ATCC 29213
[10] = test system: Pseudomonas aeruginosa ATCC 27853
[11] = test system: Staphylococcus epidermidis ATCC 12228
[12] = test system: Salmonella enterica subsp. enterica serovar Typhimurium C77-31
[13] = test system: Bacillus subtilis CMCC 63501
[14] = test system: Enterococcus faecalis ATCC 29212
[15] = test system: Micrococcus luteus ATCC 9341
[16] = test system: Pseudomonas aeruginosa ATCC 15442
Escherichia coli D31 = test system: Escherichia coli D31
[17] = test system: Staphylococcus aureus ATCC 25923
[18] = test system: Candida albicans ATCC 10231
[19] = test system: Streptococcus mutans ATCC 25175
[20] = test system: Bacillus subtilis ATCC 6633

In the case of `CC[C@H](C)[C@@H]1NC(=O)[C@H](C)NC(=O)[C@H](CC(C)C)NC(=O)[C@@H]2CSSC[C@@H](C(=O)N[C@@H](CCCN=C(N)N)C(=O)N[C@@H](CCCN=C(N)N)C(=O)O)NC(=O)[C@H]([C@@H](C)CC)NC(=O)[C@@H]3CSSC[C@H](NC(=O)[C@H](CC(C)C)NC(=O)[C@H](CO)NC(=O)[C@H](Cc4cnc[nH]4)NC(=O)[C@H](CC(N)=O)NC(=O)[C@H](C)NC(=O)[C@H](C)NC(=O)[C@H](Cc4ccccc4)NC(=O)CNC(=O)[C@H](CCCCN)NC(=O)[C@H](C)NC(=O)[C@H](CCC(=O)O)NC(=O)[C@H](Cc4ccccc4)NC(=O)[C@H](CO)NC(=O)[C@H](CC(C)C)NC(=O)[C@H](CC(C)C)NC(=O)[C@H](CC(=O)O)NC(=O)[C@@H](NC(=O)[C@@H](NC(=O)[C@@H](N)C(C)C)[C@@H](C)O)CSSC[C@H](NC(=O)[C@H](CO)NC(=O)CNC(=O)CNC(=O)[C@H](CCCN=C(N)N)NC(=O)[C@H](CCCN=C(N)N)NC(=O)CNC1=O)C(=O)N[C@@H](CCC(=O)O)C(=O)N[C@@H](CCCN=C(N)N)C(=O)NCC(=O)N[C@@H](C(C)C)C(=O)N3)C(=O)N[C@@H](C)C(=O)N[C@@H](C)C(=O)N[C@@H](Cc1cnc[nH]1)C(=O)N2` [VTCDLLSFEAKGFAANHSLCAAHCLAIGRRGGSCERGVCICRR], the MIC (Staphylococcus aureus) is reported as 4.39 µM and the MIC [1] is reported as 0.878 µM.
In the case of `CC[C@H](C)[C@H](N)C(=O)N[C@@H](CC(C)C)C(=O)N[C@H](C(=O)N[C@@H](CC(C)C)C(=O)N[C@H](C(=O)N[C@@H](CCCCN)C(=O)N[C@@H](CCCN=C(N)N)C(=O)N[C@@H](CCCCN)C(=O)O)[C@@H](C)CC)[C@@H](C)CC` [ILILIKRK], the MIC [2] is reported as at least 64 µM and the MIC (Staphylococcus xylosus) is reported as at least 64 µM.
`CC[C@H](C)[C@H](NC(=O)[C@H](CC(C)C)NC(=O)[C@@H](NC(=O)[C@H](CCCN=C(N)N)NC(=O)[C@H](CCCCN)NC(=O)[C@H](CCCN=C(N)N)NC(=O)[C@H](CCCCN)NC(=O)[C@H](CC(C)C)NC(=O)[C@@H](NC(=O)[C@H](CC(C)C)NC(=O)[C@H](CCCCN)NC(=O)[C@@H](N)CCCN=C(N)N)[C@@H](C)CC)[C@@H](C)CC)C(=O)N[C@@H](CCCCN)C(=O)N[C@@H](CCCN=C(N)N)C(=O)O` [RKLILKRKRILIKR] was tested, and the MIC [2] was 16 µM (≈ 29.4 µg/mL) and the MIC (Staphylococcus xylosus) was 8 µM (≈ 14.7 µg/mL).
`CC[C@H](C)[C@H](NC(=O)[C@H](CCCCN)NC(=O)[C@@H](NC(=O)[C@H](CO)NC(=O)[C@H](CC(N)=O)NC(=O)[C@H](Cc1c[nH]c2ccccc12)NC(=O)[C@H](CC(C)C)NC(=O)CN)[C@@H](C)CC)C(=O)N[C@@H](C)C(=O)NCC(=O)N[C@@H](CCCCN)C(=O)N[C@@H](CC(N)=O)C(=O)N[C@@H](CC(C)C)C(=O)N[C@@H](Cc1ccccc1)C(=O)N[C@H](C(=O)N[C@@H](CC(N)=O)C(=O)N[C@H](C(=O)N[C@@H](CC(C)C)C(=O)N[C@@H](CC(=O)O)C(=O)N[C@@H](CCCCN)C(=O)N[C@H](C(=O)N[C@@H](CCCN=C(N)N)C(=O)N[C@H]1CSSC[C@@H](C(=O)O)NC(=O)CNC(=O)CNC(=O)[C@H](C)NC(=O)[C@H](C(C)C)NC(=O)[C@H](CCCCN)NC1=O)[C@@H](C)CC)C(C)C)C(C)C` [GLWNSIKIAGKNLFVNVLDKIRCKVAGGC] was tested, and the MIC [3] was 12.5 µM (≈ 38.9 µg/mL), the MIC [4] was 3.1 µM (≈ 9.66 µg/mL) and the MIC [5] was at least 100 µM. It also gave an MIC [6] of 12.5 µM (≈ 38.9 µg/mL).
`NC(=O)[C@H](Cc1c[nH]c2ccccc12)NC(=O)[C@H](CCCN=C(N)N)NC(=O)[C@H](CS)NC(=O)[C@H](Cc1ccccc1)NC(=O)[C@H](CCCN=C(N)N)NC(=O)[C@H](CCCN=C(N)N)NC(=O)[C@H](CCCN=C(N)N)NC(=O)[C@H](CS)NC(=O)[C@H](CCCN=C(N)N)NC(=O)[C@@H](N)Cc1c[nH]c2ccccc12` [WRCRRRFCRW] gave an MIC [7] of 4 µM (≈ 6.1 µg/mL), an MIC [8] of 2 µM (≈ 3.05 µg/mL) and an MIC [9] of 8 µM (≈ 12.2 µg/mL). The MIC [10] was over 128 µM, the MIC [11] was 8 µM (≈ 12.2 µg/mL) and the MIC [12] was 16 µM (≈ 24.4 µg/mL). The MIC [13] was 2 µM (≈ 3.05 µg/mL) and the MIC [14] was 8 µM (≈ 12.2 µg/mL).
`CC[C@H](C)[C@H](NC(=O)[C@H](CC(C)C)NC(=O)[C@@H](NC(=O)[C@H](CC(C)C)NC(=O)[C@@H](NC(=O)[C@@H](N)CCCCN)[C@@H](C)CC)[C@@H](C)CC)C(=O)N[C@@H](CCCCN)C(=O)N[C@@H](CCCN=C(N)N)C(=O)N[C@@H](CCCCN)C(=O)O` [KILILIKRK] was tested, and the MIC [2] was at least 32 µM and the MIC (Staphylococcus xylosus) was 16 µM (≈ 18 µg/mL).
`CC[C@H](C)[C@H](NC(=O)[C@H](CC(C)C)NC(=O)[C@@H](NC(=O)[C@H](CC(C)C)NC(=O)[C@@H](NC(=O)[C@H](CCCCN)NC(=O)[C@H](CCCN=C(N)N)NC(=O)[C@@H](N)CCCCN)[C@@H](C)CC)[C@@H](C)CC)C(=O)N[C@@H](CCCCN)C(=O)N[C@@H](CCCN=C(N)N)C(=O)N[C@@H](CCCCN)C(=O)O` [KRKILILIKRK] showed an MIC [2] of 8 µM (≈ 11.3 µg/mL) and an MIC (Staphylococcus xylosus) of 2 µM (≈ 2.82 µg/mL).
In the case of `CC[C@H](C)[C@H](N)C(=O)N[C@@H](CC(C)C)C(=O)N1CCC[C@H]1C(=O)N[C@@H](Cc1c[nH]c2ccccc12)C(=O)N[C@@H](CCCCN)C(=O)N[C@@H](Cc1c[nH]c2ccccc12)C(=O)N1CCC[C@H]1C(=O)N[C@@H](Cc1c[nH]c2ccccc12)C(=O)N[C@@H](Cc1c[nH]c2ccccc12)C(=O)N1CCC[C@H]1C(=O)N[C@@H](Cc1c[nH]c2ccccc12)C(=O)N[C@@H](C)C(=O)N[C@@H](CCCN=C(N)N)C(N)=O` [ILPWKWPWWPWAR], the MIC [15] is reported as 0.4 µM (≈ 0.728 µg/mL).
For `CC(C)C[C@H](NC(=O)CN)C(=O)N[C@H](C(=O)N[C@H](C(=O)N[C@@H](CC(=O)O)C(=O)N[C@H](C(=O)N[C@@H](CC(C)C)C(=O)N[C@@H](CCCCN)C(=O)NCC(=O)N[C@@H](C)C(=O)N[C@@H](C)C(=O)N[C@@H](CCCCN)C(=O)N[C@H](C(=O)N[C@H](C(=O)N[C@@H](C)C(=O)N[C@@H](C)C(=O)N[C@@H](CCC(=O)O)C(=O)N[C@@H](CC(C)C)C(=O)N[C@@H](CC(C)C)C(=O)N[C@@H](CCCN=C(N)N)C(=O)N[C@@H](CCCCN)C(=O)N[C@@H](C)C(=O)N[C@@H](Cc1cnc[nH]1)C(N)=O)C(C)C)[C@@H](C)O)[C@@H](C)O)[C@@H](C)O)C(C)C` [GLVTDTLKGAAKTVAAELLRKAH], the MIC [16] was at least 100 µM, the MIC (Escherichia coli D31) was at least 100 µM and the MIC [17] was 45.3 µM (≈ 107 µg/mL). For the same compound, the MIC [18] was over 100 µM and the MIC [19] was at least 100 µM.
`CC[C@H](C)[C@H](NC(=O)CN)C(=O)N[C@@H](CC(C)C)C(=O)NCC(=O)N[C@H](C(=O)N[C@H](C(=O)N[C@@H](Cc1ccccc1)C(=O)N[C@@H](CCCCN)C(=O)N[C@@H](C)C(=O)NCC(=O)N[C@@H](CCCCN)C(=O)NCC(=O)N[C@H](C(=O)N[C@H](C(=O)N[C@H]1CSSC[C@@H](C(=O)O)NC(=O)[C@H](CC(C)C)NC(=O)CNC(=O)[C@H]([C@@H](C)O)NC(=O)[C@H](CC(C)C)NC(=O)CNC1=O)C(C)C)[C@@H](C)CC)C(C)C)[C@@H](C)O` [GILGTVFKAGKGIVCGLTGLC] gave an MIC [3] of at least 50 µM, an MIC [4] of 3.1 µM (≈ 6.22 µg/mL) and an MIC [5] of at least 50 µM. For the same compound, the MIC [6] was 12.5 µM (≈ 25.1 µg/mL) and the MIC [20] was 12.5 µM (≈ 25.1 µg/mL).
